Results on two compounds are retold here after ChEMBL document CHEMBL1795274, “Synthesis and antiviral activity of cyclopropyl-spirocarbocyclic adenosine, (4R,5S,6R,7R)-4-(6-amino-9H-purin-9-yl)-7-(hydroxymethyl)spiro[2.4]heptane-5,6-diol against hepatitis C virus” (Bioorg Med Chem Lett, 2011).

Structures are written as SMILES. The source made the active and inactive calls. The calls are words filed in the database; no cut-off is given here.

The term EC50 denotes the concentration that produces a half-maximal response. What is called EC90 is the concentration at which the effect reaches the 90% level. By CC50 is commonly meant the concentration that lowers cell viability or growth by half.

Data set [1] is described as follows: Selectivity index, ratio of CC50 for human HuH7 cells to EC50 for HCV 1a. Also on record: species or system Huh-7.
Data set [2] deals with Hepatitis C virus. Nature of the data set: Antiviral activity against HCV1a infected in human HuH7 cells expressing E2 glycoprotein assessed as inhibition of viral RNA replication after 5 days. The format is functional, organism-based, Hepacivirus hominis. To be noted: subtype 1a, Huh-7, 120 h.
The nature of data set [3]: Cytotoxicity against human HuH7 cells expressing E2 glycoprotein assessed as reduction of rRNA level after 5 days. Format: cell-based, Huh-7.
For another data set, the system named is Yellow fever virus. Nature of the data set: Antiviral activity against Yellow fever virus. The format is functional, organism-based.
A further data set deals with Hepatitis B virus. Kind of data set: Antiviral activity against Hepatitis B virus. The format is functional, organism-based.
In a further data set the test system is West Nile virus. Nature of the data set: Antiviral activity against West Nile virus. Format: functional, organism-based.
A further data set has as its system Human alphaherpesvirus 1. Nature of the data set: Antiviral activity against HSV1. The format is functional, organism-based.
The nature of data set [4]: Selectivity index, ratio of CC50 for human HuH7 cells to EC50 for Vaccinia virus. The following applies: read-out: Ratio CC50/EC50. Format: toxicity, cell-based, Huh-7.
Data set [5] relates to Hepatitis C virus. Kind of data set: Antiviral activity against HCV1b infected in human Huh7 cells expressing E2 glycoprotein assessed as inhibition of viral RNA replication after 5 days. The format is functional, organism-based, Hepacivirus hominis. The following applies: genotype 1b, Huh-7, 120 h.
A short description of data set [6]: Cytotoxicity against human HuH7 cells. The format is cell-based, Huh-7.
A short description of data set [7]: Selectivity index, ratio of CC50 for human HuH7 cells to EC50 for HCV 1b. Set-up: species or system Huh-7.
The next data set has as its system Enterovirus. Nature of the data set: Antiviral activity against Rhinovirus. Format: functional, organism-based.
The subject of data set [8] is Venezuelan equine encephalitis virus. Nature of the data set: Antiviral activity against Venezuelan equine encephalitis virus. The format is functional, organism-based.
The nature of data set [9]: Selectivity index, ratio of CC50 for human HuH7 cells to EC50 for Measles virus by visual assay. The format is toxicity, cell-based, Huh-7. The following applies: read-out: Ratio CC50/EC50.
The test system of a further data set is Human alphaherpesvirus 2. Kind of data set: Antiviral activity against HSV2. Format: functional, organism-based.
In data set [10] the test system is Measles morbillivirus. Nature of the data set: Antiviral activity against Measles virus infected in human HuH7 cells assessed as reduction of viral level by neutral red assay. Format: functional, organism-based. The following applies: Huh-7.
A further data set has as its system Human alphaherpesvirus 3. Nature of the data set: Antiviral activity against Varicella zoster virus. Format: functional, organism-based.
Data set [11] concerns Influenza A virus. Kind of data set: Antiviral activity against Influenza A virus H3N2. The format is functional, organism-based.
A short description of data set [12]: Selectivity index, ratio of CC50 for human HuH7 cells to EC50 for Adenovirus by neutral red assay. To be noted: read-out: Ratio CC50/EC50. Format: toxicity, cell-based, Huh-7.
Data set [13] concerns unidentified adenovirus. Kind of data set: Antiviral activity against Adenovirus infected in human HuH7 cells assessed as reduction of viral level by neutral red assay. The format is functional, organism-based. The following applies: Huh-7.
The nature of data set [14]: Selectivity index, ratio of CC50 for human HuH7 cells to EC50 for Measles virus by neutral red assay. Format: toxicity, cell-based, Huh-7. The following applies: read-out: Ratio CC50/EC50.
Another data set relates to SARS-CoV. Kind of data set: Antiviral activity against SARS coronavirus. To be noted: Severe acute respiratory syndrome-related coronavirus. The format is functional, organism-based.
In data set [15] the test system is Influenza A virus. Nature of the data set: Antiviral activity against Influenza A virus H5N1. Format: functional, organism-based.
Data set [16] deals with Influenza A virus. Kind of data set: Antiviral activity against Influenza A virus H1N1. The format is functional, organism-based.
A short description of data set [17]: Selectivity index, ratio of CC50 for human HuH7 cells to EC50 for Adenovirus by visual assay. The format is toxicity, cell-based, Huh-7. To be noted: read-out: Ratio CC50/EC50.
Data set [18] deals with Measles morbillivirus. Kind of data set: Antiviral activity against Measles virus infected in human HuH7 cells assessed as reduction of viral level by visual assay. Format: functional, organism-based. To be noted: Huh-7.
In the next data set the test system is Human respirovirus 3. Nature of the data set: Antiviral activity against Human parainfluenza virus 3. Format: functional, organism-based.
Data set [19] deals with unidentified adenovirus. Kind of data set: Antiviral activity against Adenovirus infected in human HuH7 cells assessed as reduction of viral level by visual assay. Format: functional, organism-based. The following applies: Huh-7.
Another data set relates to Vaccinia virus. Kind of data set: Antiviral activity against Vaccinia virus infected in human HuH7 cells assessed as reduction of virus-induced cytopathic-effect. The following applies: Orthopoxvirus vaccinia, Huh-7. Format: functional, organism-based. In general terms: Cytopathic effects are the visible damage that an infection or toxin causes in cultured cells.
For another data set, the system named is Cowpox virus. Nature of the data set: Antiviral activity against Cowpox virus. Format: functional, organism-based.

Turning to `C[C@@]1(O)[C@H](O)[C@@H](CO)O[C@H]1n1ccc(N)nc1=O`, in data set [1], the “Ratio CC50/EC50” value is above 272. In the data set on Hepatitis C virus [2], the EC50 stood at 1700 nM and the EC90 amounted to 8200 nM. The CC50 at 120 h in [3] is above 300000 nM.
As for `Nc1ncnc2c1ncn2[C@H]1[C@H](O)[C@H](O)[C@@H](CO)C12CC2`, the outcome (in the data set with Yellow fever virus; with Hepatitis B virus; in the data set on West Nile virus; in the data set with Human alphaherpesvirus 1; in the data set with Enterovirus; in data set [8]) was inactive. For the same compound, the result in the data set with Human alphaherpesvirus 2, with Human alphaherpesvirus 3, in the data set on Influenza A virus [11], with SARS-CoV, in the data set with Influenza A virus [15] and with Influenza A virus [16] was inactive. In addition, the outcome in the data set on Human respirovirus 3 and in the data set with Cowpox virus was inactive. Besides, the selectivity ratio in data set [4] is above 7.1; in [9], 2; in data set [12] it was 4; in [14], 5; in [17], 3. Moreover, the EC50 in the data set with Hepatitis C virus [5] is 368 nM; in the data set with Hepatitis C virus [2], 273 nM; in the data set with Measles morbillivirus [10], 9000 nM; in the data set with unidentified adenovirus [13], 3000 nM; with Measles morbillivirus [18], 7000 nM; in the data set on unidentified adenovirus [19], 3000 nM. For the same compound, the EC50 in the data set on Vaccinia virus is 42700 nM. Moreover, the EC90 with Hepatitis C virus [5] turned out to be 1200 nM; in the data set with Hepatitis C virus [2] it was 3000 nM. The same compound returned a CC50 in [6] above 10000 nM. For the same compound, the “Ratio CC50/EC50” value in data set [7] is given as above 272; in data set [1] it was above 366. Further, the CC50 at 120 h in data set [3] is above 100000 nM.
